Assay results as given in patent US10357546B2, “Acceleration of diabetic wound healing” (University of Notre Dame du Lac, priority 2014, dated 2019).
pKi: −log10 of the molar value.

Key:
MMP-9 = MMP-9 (Homo sapiens (Human), UniProt P14780); experiment: Enzyme inhibition, MMP-9 catalytic domain; assay type: biochemical; details: for residence time: calculated as 1/koff
Procedure: (§1) Inhibitor stock solutions (10 mM) were prepared freshly in DMSO before enzyme inhibition assays. […] Enzyme inhibition studies were carried out using a Cary Eclipse fluorescence spectrophotometer (Varian, Walnut Creek, Calif., USA).

MMP-8 = MMP-8 (Homo sapiens (Human), UniProt P22894); experiment: Enzyme inhibition, MMP-8 catalytic domain; assay type: biochemical
MMP-8, sequence (P22894 100-262): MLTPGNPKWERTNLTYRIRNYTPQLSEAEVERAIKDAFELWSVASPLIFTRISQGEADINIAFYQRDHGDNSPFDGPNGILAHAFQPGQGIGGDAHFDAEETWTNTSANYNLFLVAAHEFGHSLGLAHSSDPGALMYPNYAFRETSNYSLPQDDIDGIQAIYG
Procedure: as §1

[1] = tested on: ultraviolet B irradiated murine skin; details: Kobayashi & Shinkai (2005); cited from earlier work

MMP-9, sequence (P14780 107-444): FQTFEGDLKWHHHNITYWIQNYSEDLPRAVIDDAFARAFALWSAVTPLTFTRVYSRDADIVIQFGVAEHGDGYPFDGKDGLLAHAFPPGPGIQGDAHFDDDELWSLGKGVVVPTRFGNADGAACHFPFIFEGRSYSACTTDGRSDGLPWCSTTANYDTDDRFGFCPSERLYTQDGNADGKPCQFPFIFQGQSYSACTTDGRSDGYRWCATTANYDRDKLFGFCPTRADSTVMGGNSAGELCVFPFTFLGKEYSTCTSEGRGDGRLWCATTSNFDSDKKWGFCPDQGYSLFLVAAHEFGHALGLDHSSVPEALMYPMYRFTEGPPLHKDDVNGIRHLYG

Compound | Inhibition type, MMP-9 (MMP-9) | pKi (MMP-9) | residence time (MMP-9) | Inhibition type, MMP-8 (MMP-8) | pKi (MMP-8) | inflammation in ultraviolet B irradiated murine skin [1]
O=S(=O)(CC1CS1)c1ccc(Oc2ccc(O)cc2)cc1 (centres unmarked) [p-OH SB-3CT] | slow-binding | 6.80 | 24.5 min | non-competitive | 5.59 | –
CCC(=C/[C@H](C)C/C=C/C(C)=C/[C@@H](C)C(=O)[C@@H](C)[C@H](O)[C@@H](C)C/C(C)=C/C(=O)O)/C=C/[C@@H]1OC(=O)C=C[C@@H]1C [leptomycin B] | – | – | – | – | – | suppressed inflammation
CS(=O)(=O)Oc1ccc(Oc2ccc(S(=O)(=O)CC3CS3)cc2)cc1 (centres unmarked) [JNMS-38] | slow-binding | – | – | linear competitive | – | –
CCOC(=O)Nc1ccc(Oc2ccc(S(=O)(=O)CC3CS3)cc2)cc1 (centres unmarked) [ND-394] | slow-binding | 6.07 | 25.6 min | non-competitive | 4.82 | –
Nc1ccc(Oc2ccc(S(=O)(=O)CC3CS3)cc2)cc1 (centres unmarked) [ND-322] | slow-binding | – | – | – | – | –
